Measurements taken from BindingDB's records for patent US20260001833 (The Cleveland Clinic Foundation, 2026).

Target: T1, Choline trimethylamine-lyase (UniProt A0AAJ0YC41)
T1 sequence (A0AAJ0YC41 whole entry): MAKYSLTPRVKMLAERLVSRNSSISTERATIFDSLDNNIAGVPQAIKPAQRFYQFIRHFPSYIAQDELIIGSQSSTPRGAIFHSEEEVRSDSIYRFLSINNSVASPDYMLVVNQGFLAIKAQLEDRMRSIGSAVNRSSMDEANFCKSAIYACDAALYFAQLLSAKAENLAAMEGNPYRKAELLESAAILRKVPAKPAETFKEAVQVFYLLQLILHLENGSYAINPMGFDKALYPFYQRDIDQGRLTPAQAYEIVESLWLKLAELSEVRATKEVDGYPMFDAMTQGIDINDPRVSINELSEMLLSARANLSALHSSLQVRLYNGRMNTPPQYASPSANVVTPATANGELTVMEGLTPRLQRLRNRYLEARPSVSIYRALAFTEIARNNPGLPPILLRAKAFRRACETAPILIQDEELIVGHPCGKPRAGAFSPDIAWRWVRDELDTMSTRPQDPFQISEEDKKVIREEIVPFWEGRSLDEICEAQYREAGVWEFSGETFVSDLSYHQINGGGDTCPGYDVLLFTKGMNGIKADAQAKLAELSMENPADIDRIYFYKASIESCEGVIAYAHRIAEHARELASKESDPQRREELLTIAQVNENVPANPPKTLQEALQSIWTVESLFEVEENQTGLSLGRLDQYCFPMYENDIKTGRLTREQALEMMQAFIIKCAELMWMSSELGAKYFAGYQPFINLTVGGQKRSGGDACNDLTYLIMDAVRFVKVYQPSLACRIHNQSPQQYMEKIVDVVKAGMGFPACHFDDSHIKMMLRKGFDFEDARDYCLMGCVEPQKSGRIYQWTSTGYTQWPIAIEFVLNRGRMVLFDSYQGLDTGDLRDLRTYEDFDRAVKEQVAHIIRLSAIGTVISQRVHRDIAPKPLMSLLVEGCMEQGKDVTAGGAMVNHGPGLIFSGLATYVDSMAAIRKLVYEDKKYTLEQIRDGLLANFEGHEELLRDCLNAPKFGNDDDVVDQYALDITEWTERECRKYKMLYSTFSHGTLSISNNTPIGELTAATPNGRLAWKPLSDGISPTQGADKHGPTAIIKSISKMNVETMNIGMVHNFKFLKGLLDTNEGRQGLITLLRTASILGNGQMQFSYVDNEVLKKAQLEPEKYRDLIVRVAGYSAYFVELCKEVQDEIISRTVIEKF
Assay: In Vitro TMA Inhibition
Method: Choline TMA lyase enzymatic activity assays were conducted to measure the conversion of isotope-labeled d9-choline to d9-TMA. Upon thawing an aliquot of frozen clarified lysate on ice and gentle mixing, clarified lysate was diluted to 5 mg/mL in lysis buffer and the necessary co-factors were added (final concentration: 1 mM SAM, 10 mM NaDT, and 2 mM NADH). Potential inhibitor compounds (typically dissolved in H2O) were serially diluted (10-fold) and added to individual reaction mixtures (done in triplicate). The mixture was then allowed to incubate for at least 15 minutes at 22° C. before the addition of substrate (300 μM final d9-choline) to initiate the reaction, which was carried out for 2 hours at room temperature (22° C.) in the dark in gas tight sealed reaction vials. The reactions were quenched with the addition of 200 μL of 1 M NaOH and 0.5 μM of the internal standard ([13C3 15N1]TMA), vortexing and placement in ice. d9-TMA production was quantified using mass spectrometry by measuring the peak area ratio of the precursor to product ion transition of d9-TMA (m/z 69→49) to the internal standard [13C3 15N1]TMA (m/z 64→47).

Question: Which IC50 does the source give for `C[N+](C)(CF)CCOC(=O)c1ccc(O)cc1` [US20260001833, Compound 3] here?
Answer: 3.6 µM
